Like-named read-outs stand apart in the source and are kept apart here. Residues, ends and D or L forms follow the SMILES beside them. *: point of attachment. Cbz = O=C(OCc1ccccc1)*
Assays:
[1] = system: S. mansoni adult worms; experiment: Motility assay on adult parasites (pixel displacement, relative to DMSO control); type: cell-based, Schistosoma mansoni; conditions: 10 μM; for Fractional motility: secondary screen; for motility phenotype in words: adults, long-term after washout
Outline: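 Unpaired adult worms from mice 6 weeks post-infection kept in OPTI-MEM with 5% dialyzed FBS and exposed to compounds at 1 and 10 μM for 24 h. Motility filmed 1 min at 10 frames/s, quantified by pixel displacement versus DMSO-treated worms; recovery followed up to five days after washout.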

[2] = system: S. mansoni schistosomulae; experiment: Phenotypic primary screen assay on schistosomulae (phenotype; viability by methylene blue dye exclusion); type: cell-based; conditions: Schistosoma mansoni; three-day-old schistosomulae, 10 μM, 24 h; calculated 5 days post compound exposure; read-out: Viability (%)
[3] = system: S. mansoni schistosomulae; experiment: as above; type: cell-based, Schistosoma mansoni; conditions: for Phenotype: estimated 5 days post compound exposure; for effect on viability of schistosomulae in words: 24 h incubation, five days
Outline: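 Parasites lacking contraction/relaxation cycles and showing dark internal granulations counted as dead. Movement and body shape were compared with DMSO-treated controls under a stereo microscope at 24 h and at five days of exposure. Larvae came from infected snails shed under light for 2 h at 32 °C.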

[4] = system: adult schistosomes; design: method as in Neves et al., 2016; conditions: transient hyperactivity, ref Neves et al., 2016, cited from earlier work
[5] = system: S. mansoni schistosomulae; experiment: Motility assay on schistosomulae (pixel displacement, relative to DMSO control); type: cell-based, Schistosoma mansoni; conditions: for activity at 1 µM: Schistosoma mansoni, read-out: Fractional motility
Outline: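 Motility was scored by pixel displacement from 1-min videos (10 frames/s) and compared with DMSO controls. Schistosomulae (200/well, Opti-MEM, 5% dialyzed FBS, no antibiotics) received compound at 1 or 10 μM for 24 h; selected hits were also followed at 1, 3, 6 and 12 h.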

[6] = system: Glo HEK293 cells; experiment: Cellular viability, CellTiter Glo 2.0; type: cell-based, human; conditions: 10 μM, 3 h
Protocol: Adherent HEK293 cells were seeded at a density of 5 x 10^4 cells/well (96-well plate) in Opti-MEM without FBS or antibiotics and incubated overnight at 37 °C and 5% CO2 prior to the assay. In place of the media, 100 μL HBSS supplemented with 0.1% bovine serum albumin (BSA), 500 μM 3-isobutyl-1-methylxanthine (IBMX, Sigma Aldrich), 20 mM HEPES (pH 7.4) and 1 mg/mL D-luciferin (Goldbio) was added to each well. After a 2 h incubation period at room temperature, luminescence background was recorded, and compounds and control ligands were added at 10X concentration. Immediately after compound addition, luminescence was read over a 45 min period to detect compounds stimulating cAMP release through receptor activation. […] For each assay, luminescence responses were recorded in triplicate and repeated with four independant cell batches. Compounds were also added to naïve Glo HEK293 cells (no receptor) and the robustness of the assay was calculated as: Z^'=1−3×(SDmax+SDmin)/Meanmax−Meanmin with max and min referring respectively to cells expressing GPCRs and Glo (no receptor) cells. Cellular viability was assessed using a CellTiter Glo 2.0 kit (Promega). Glo cells were exposed to 10 μM of each hit compound for 3 h in Opti-MEM at 37 °C, 5% CO2. […] 2X cell lysis media was then added and end-point luminescence recorded after a 10 min stabilization time.

[7] = target: Sm5HTR (Schistosoma mansoni, UniProt G4V5G4); experiment: cAMP luminescence (GloSensor) assay, HEK293 cells expressing Sm5HTR; type: cell-based, S. mansoni; conditions: compound incubation followed by 50 μM 5-HT
Chain of Sm5HTR (G4V5G4 entry or part of it): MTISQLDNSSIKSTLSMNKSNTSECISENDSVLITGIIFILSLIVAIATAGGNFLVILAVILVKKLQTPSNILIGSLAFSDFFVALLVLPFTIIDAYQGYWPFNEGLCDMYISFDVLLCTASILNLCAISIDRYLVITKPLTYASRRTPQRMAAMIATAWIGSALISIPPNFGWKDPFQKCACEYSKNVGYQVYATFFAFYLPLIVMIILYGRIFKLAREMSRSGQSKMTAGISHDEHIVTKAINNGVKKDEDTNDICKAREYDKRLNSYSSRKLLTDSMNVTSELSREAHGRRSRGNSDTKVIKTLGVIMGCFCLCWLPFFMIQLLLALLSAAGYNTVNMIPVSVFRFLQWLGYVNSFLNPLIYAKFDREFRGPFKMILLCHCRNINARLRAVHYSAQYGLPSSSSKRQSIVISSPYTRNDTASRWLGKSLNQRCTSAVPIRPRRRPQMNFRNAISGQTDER

[8] = system: naïve Glo HEK293 cells (no receptor); experiment: cAMP luminescence (GloSensor) assay on naïve Glo HEK293 cells (no receptor); type: cell-based, human; conditions: 20 μM forskolin
Protocol: The SmGPR2 sequence previously identified ([El-Shehabi and Ribeiro, 2010]) was codon optimized for mammalian expression and subcloned in the vector pCI-neo (Addgene, USA) using the XbaI and NotI restriction enzymes. A FLAG fusion tag ([…]) was introduced at the N-terminal end of the receptor sequence. Stable transfection of HEK293 cells (ATCC; CRL-1573) was performed using the X-tremeGENE 9 DNA transfection reagent (Sigma Aldrich). Cells were then cultured at 37 °C, 5% CO2 in Opti-MEM supplemented with 5% FBS and maintained in 400 μg/mL G418 (Sigma Aldrich) for selection of transformants. […] All cell lines expressing S. mansoni GPCRs were then transfected with the GloSensor encoding plasmid p22F (Promega) and media was supplemented with 100 μg/mL hygromycin for stable expression (ThermoFisher).
Adherent HEK293 cells were seeded at a density of 5 x 10^4 cells/well (96-well plate) in Opti-MEM without FBS or antibiotics and incubated overnight at 37 °C and 5% CO2 prior to the assay. In place of the media, 100 μL HBSS supplemented with 0.1% bovine serum albumin (BSA), 500 μM 3-isobutyl-1-methylxanthine (IBMX, Sigma Aldrich), 20 mM HEPES (pH 7.4) and 1 mg/mL D-luciferin (Goldbio) was added to each well. After a 2 h incubation period at room temperature, luminescence background was recorded, and compounds and control ligands were added at 10X concentration. Immediately after compound addition, luminescence was read over a 45 min period to detect compounds stimulating cAMP release through receptor activation. […] For each assay, luminescence responses were recorded in triplicate and repeated with four independant cell batches. Compounds were also added to naïve Glo HEK293 cells (no receptor) and the robustness of the assay was calculated as: Z^'=1−3×(SDmax+SDmin)/Meanmax−Meanmin with max and min referring respectively to cells expressing GPCRs and Glo (no receptor) cells. Cellular viability was assessed using a CellTiter Glo 2.0 kit (Promega). Glo cells were exposed to 10 μM of each hit compound for 3 h in Opti-MEM at 37 °C, 5% CO2. An equimolar concentration of tamoxifen (Sigma Aldrich) was used as a positive control. 2X cell lysis media was then added and end-point luminescence recorded after a 10 min stabilization time.

[9] = system: schistosomulae; design: method as in El-Sakkary et al., 2018; conditions: 20 min exposure, 10 μM; ref El-Sakkary et al., 2018; cited from earlier work
[10] = system: schistosomes; design: method as in de Almeida et al., 2016; conditions: 12.5–100 μM; ref de Almeida et al., 2016; cited from earlier work
[11] = system: schistosomulae; design: method as in Panic et al., 2015b; conditions: 72 h incubation at 10 μM; ref Panic et al., 2015b; cited from earlier work
[12] = system: schistosomes; design: method as in Guerra-Sa et al., 2005; conditions: treated mice; ref Guerra-Sa et al., 2005; cited from earlier work
[13] = target: SmGPR2 (Schistosoma mansoni, UniProt G4VIY8); experiment: cell-based
Chain of SmGPR2 (G4VIY8 entry or part of it): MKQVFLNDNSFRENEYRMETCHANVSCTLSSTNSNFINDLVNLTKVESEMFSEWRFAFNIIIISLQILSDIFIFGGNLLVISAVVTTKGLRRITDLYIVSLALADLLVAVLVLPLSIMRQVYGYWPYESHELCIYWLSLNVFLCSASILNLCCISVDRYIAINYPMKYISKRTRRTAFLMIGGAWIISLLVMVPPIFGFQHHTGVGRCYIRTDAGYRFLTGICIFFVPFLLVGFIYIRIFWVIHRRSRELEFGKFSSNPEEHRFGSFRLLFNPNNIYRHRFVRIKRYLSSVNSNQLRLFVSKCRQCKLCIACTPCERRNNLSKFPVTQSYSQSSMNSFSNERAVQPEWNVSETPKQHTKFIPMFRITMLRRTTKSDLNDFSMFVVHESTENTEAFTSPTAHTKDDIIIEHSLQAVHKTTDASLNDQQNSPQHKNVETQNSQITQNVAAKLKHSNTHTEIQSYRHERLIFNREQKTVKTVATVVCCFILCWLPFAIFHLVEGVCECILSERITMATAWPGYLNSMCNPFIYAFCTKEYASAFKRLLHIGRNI
Protocol: The SmGPR2 sequence previously identified ([El-Shehabi and Ribeiro, 2010]) was codon optimized for mammalian expression and subcloned in the vector pCI-neo (Addgene, USA) using the XbaI and NotI restriction enzymes. A FLAG fusion tag ([…]) was introduced at the N-terminal end of the receptor sequence. Stable transfection of HEK293 cells (ATCC; CRL-1573) was performed using the X-tremeGENE 9 DNA transfection reagent (Sigma Aldrich). Cells were then cultured at 37 °C, 5% CO2 in Opti-MEM supplemented with 5% FBS and maintained in 400 μg/mL G418 (Sigma Aldrich) for selection of transformants. […]
Adherent HEK293 cells were seeded at a density of 5 x 10^4 cells/well (96-well plate) in Opti-MEM without FBS or antibiotics and incubated overnight at 37 °C and 5% CO2 prior to the assay. […] After a 2 h incubation period at room temperature, luminescence background was recorded, and compounds and control ligands were added at 10X concentration. Immediately after compound addition, luminescence was read over a 45 min period to detect compounds stimulating cAMP release through receptor activation. […] For each assay, luminescence responses were recorded in triplicate and repeated with four independant cell batches. […] Cellular viability was assessed using a CellTiter Glo 2.0 kit (Promega). […] 2X cell lysis media was then added and end-point luminescence recorded after a 10 min stabilization time.

[14] = three-day-old schistosomulae, 10 μM, 24 h
[15] = schistosomulae, 1h exposure, read at D1, 10 µM
[16] = schistosomulae, 1h exposure, read at D5, 10 µM
[17] = schistosomulae, 3h exposure, read at D1, 10 µM
[18] = schistosomulae, 3h exposure, read at D5, 10 µM
[19] = schistosomulae, 6h exposure, read at D1, 10 µM
[20] = schistosomulae, 6h exposure, read at D5, 10 µM
[21] = schistosomulae, secondary screen, 24h exposure, read at D1, 1 µM
[22] = schistosomulae, secondary screen, 24h exposure, read at D1, 10 µM
[23] = schistosomulae, secondary screen, 24h exposure, read at D5, 10 µM
[24] = 120 h, schistosomulae, secondary screen, 24h exposure, read at D5, 1 µM

Fc1ccc([C@@H]2CCNC[C@H]2COc2ccc3c(c2)OCO3)cc1 [Paroxetine]
Fractional motility ([1]; D1, Female adult worms): 0.47
Fractional motility ([1]; D1, Male adult worms): 1.07
Fractional motility ([1]; D5, Female adult worms): -0.42
Fractional motility ([1]; D5, Male adult worms): -0.49
viability at 10 µM [2]: 90%
Phenotype [3, 14]: granulated
EC50 ([4]; female worms): 11.9 µM
EC50 ([4]; male worms): 2.7 µM
activity at 1 µM ([5]; 120 h, Selleckchem customized library secondary screen, 24h, D5, 1 µM): 256%
Fractional motility ([5]; Selleckchem customized library secondary screen, 24h, D1, 10 µM): 55.45
Fractional motility ([5]; Selleckchem customized library secondary screen, 24h, D5, 10 µM): 1.54
motility phenotype in words ([5]; schistosomulae, after 24 h exposure): high levels of hypermotility

Cc1ccc(S(=O)(=O)c2ccc([N+](=O)[O-])o2)cc1 [NSC697923]
reduction of ATP released by cells [6]: 48.1 ± 5.7%
inhibition of Sm5HTR 5-HT-evoked signals [7]: ≥ 50%
motility phenotype in words [1]: Significant hypomotility
Fractional motility ([1]; D1, Female adult worms): 0.25
Fractional motility ([1]; D1, Male adult worms): 0.30
Fractional motility ([1]; D5, Female adult worms): -0.95
Fractional motility ([1]; D5, Male adult worms): -0.78
effect on luminescence evoked by forskolin [8]: significant decrease in luminescence
Viability (%) ([3]; three-day-old schistosomulae, 10 μM, 24 h, calculated 5 days post compound exposure): 0%
Phenotype [3, 14]: dark, granulated
Fractional motility [5, 15]: -0.93
Fractional motility [5, 16]: -1.00
Fractional motility [5, 17]: -1.00
Fractional motility [5, 18]: -0.99
Fractional motility [5, 19]: -0.93
Fractional motility [5, 20]: -0.99
Fractional motility [5, 21]: -0.18
Fractional motility [5, 22]: 3.05
Fractional motility ([5]; schistosomulae, secondary screen, 24h exposure, read at D5, 1 µM): -0.90
Fractional motility [5, 23]: -1.00

CN(C)CCCN1c2ccccc2Sc2ccc(Cl)cc21 [Chlorpromazine]
Fractional motility ([1]; D1, Female adult worms): 0.57
Fractional motility ([1]; D1, Male adult worms): 2.38
Fractional motility ([1]; D5, Female adult worms): -0.45
Fractional motility ([1]; D5, Male adult worms): 0.24
viability at 10 µM [2]: 96%
peak motility relative to control schistosomulae [9]: exceeding 50 fold
Phenotype [3, 14]: elongated
hypermotility compared to control schistosomulae ([5]; 10 μM): > 10 fold
activity at 1 µM [5, 24]: 95%
activity at 1 µM [5, 21]: 785%
Fractional motility [5, 22]: 13.78
Fractional motility [5, 23]: 3.15

C=C1C(=O)O[C@H]2[C@H]1CC/C(C)=C/CC[C@@]1(C)O[C@@H]21 [(-)-Parthenolide]
mortality [10]: 100%
hypomotility ([1]; adult male and female parasites, long-term): 49.5%
motility phenotype in words [1]: severely paralyzed adults
Fractional motility ([1]; D1, Female adult worms): -0.36
Fractional motility ([1]; D1, Male adult worms): 0.14
Fractional motility ([1]; D5, Female adult worms): -0.65
Fractional motility ([1]; D5, Male adult worms): -0.34
viability at 10 µM [2]: 0%
effect on viability of schistosomulae in words [3]: total schistosomulicid action
Phenotype [3, 14]: big, dark, granulated
activity at 1 µM [5, 24]: -16%
activity at 1 µM [5, 21]: -3%
Fractional motility [5, 15]: -0.61
Fractional motility [5, 16]: -0.72
Fractional motility [5, 17]: -0.27
Fractional motility [5, 18]: -0.10
Fractional motility [5, 19]: 3.66
Fractional motility [5, 20]: -0.86
Fractional motility [5, 22]: 0.67
Fractional motility [5, 23]: -0.99

COC(=O)C1=C(C)NC(C)=C(C(=O)OCCN2CCN(C(c3ccccc3)c3ccccc3)CC2)C1c1cccc([N+](=O)[O-])c1 (centres unmarked) [Manidipine]
activity on schistosomulae in words [11]: schistosomulicidal
motility phenotype in words [1]: strongly impaired movement
Fractional motility ([1]; D1, Female adult worms): 0.19
Fractional motility ([1]; D1, Male adult worms): -0.20
Fractional motility ([1]; D5, Female adult worms): -0.91
Fractional motility ([1]; D5, Male adult worms): -0.98
viability at 10 µM [2]: 97%
effect on viability of schistosomulae in words [3]: no larval mortality was observed
Phenotype [3, 14]: abnormal morphology, big, granulated
activity at 1 µM [5, 24]: -59%
activity at 1 µM [5, 21]: -79%
Fractional motility [5, 15]: -0.94
Fractional motility [5, 16]: -0.59
Fractional motility [5, 17]: -0.33
Fractional motility [5, 18]: -0.75
Fractional motility [5, 19]: -0.74
hypomotility ([5]; schistosomulae, all tested concentrations until five days after drug washout): ≥ 59%
Fractional motility [5, 22]: -0.78
Fractional motility [5, 23]: -0.85
motility in extended assay with reduced incubation times, in words ([5]; three-day old schistosomulae, incubation 1 h, 3 h, 6 h): significant and sustained hypomotility

CC(C)C[C@@H](C=O)NC(=O)[C@H](CC(C)C)NC(=O)[C@H](CC(C)C)NC(=O)OCc1ccccc1 [MG-132] (Cbz-Leu-Leu-Leu-aldehyde)
fewer parasites migrated to the lung compared to control animals [12]: 65%

NCCc1c[nH]cn1 [histamine]
EC50 [13]: 12.5 ± 1.5 µM

Source: article PMC7284125, “Identification of annotated bioactive molecules that impair motility of the blood fluke Schistosoma mansoni” (International Journal for Parasitology: Drugs and Drug …, 2020)
